This is an account of results in US8324390B2, “Tetrazole-substituted anthranilamides as pesticides” (Bayer CropScience AG, priority 2008, dated 2012).

Data set [1] concerns green peach aphid (Myzus persicae). Nature of the data set: Myzus test (MYZUPE spray treatment). The data set is classed as in vivo. The note with it: Myzus persicae, foliar, read-out: effect in % (aphids killed). The text has this:
Solvent: 78 parts by weight of acetone
(§1) Solvent: 78.0 parts by weight of acetone

In data set [2] the test system is larvae of the mustard beetle (Phaedon cochleariae). Nature of the data set: Phaedon test (PHAECO spray treatment). The note with it: Phaedon cochleariae, in Brassica rapa, foliar, read-out: effect in % (beetle larvae killed).
Data set [3] has as its system caterpillars of the armyworm (Spodoptera frugiperda). Nature of the data set: Spodoptera frugiperda test (SPODFR spray treatment). The data set is classed as in vivo. To be noted: Spodoptera frugiperda, foliar, read-out: effect in % (caterpillars killed).
Description: as §1

Data set [4] can be described thus: log P determination by HPLC (EEC Directive 79/831 Annex V.A8). In kind it is physicochemical. The protocol:
The measurements were carried out using an Agilent 1100 LC system with a 50*4.6 Zorbax Eclipse C18 1.8 μm column (oven temperature 55° C., flow rate 2.0 ml/min).
The following mobile phases were used:
Mobile phase A: acetonitrile+1000 μl of formic acid/l
Mobile phase B: Millipore water+900 μl of formic acid/l

The mark [5] stands for this setting: application rate 100 g/ha, Chinese cabbage leaf discs.
Where [6] appears, read: application rate 100 g/ha, maize leaf discs.
The mark [7] stands for this setting: reversed-phase HPLC, Zorbax Eclipse C18 column, determined by HPLC according to EEC Directive 79/831 Annex V.A8, read-out: log P.
[8] abbreviates: reversed-phase HPLC, Zorbax Eclipse C18 column, by HPLC according to EEC Directive 79/831 Annex V.A8, read-out: log P.

Where two headings read alike, the source gives them in different places. A value given as a limit tells only on which side of the number the result lay.

With `CNC(=O)c1cc(I)cc(C)c1NC(=O)c1cc(Cn2nnc(C(F)(C(F)(F)F)C(F)(F)F)n2)nn1-c1ncccc1Cl` [Example 377], the pest or weed control at 100 g/ha in data set [1] (in Brassica rapa), in data set [2] and in data set [3] (in Zea mays) was at least 80% each time. Further, the chromatographic logP in data set [4] (log P) turned out to be 3.94.
With `CCNC(=O)c1cc(C#N)cc(C)c1NC(=O)c1cc(Cn2nnc(C(F)(F)C(F)(F)F)n2)nn1-c1ncccc1Br` [Example 426], the pest or weed control at 100 g/ha in data set [1] (setting [5]), in data set [2] and in data set [3] (setting [6]) was at least 80% each time. The chromatographic logP in data set [4] (setting [7]) was 3.23.
For `O=C(NCC1CC1)c1cc(Cl)cc(Cl)c1NC(=O)c1cc(Cn2nnc(C(F)F)n2)nn1-c1ncccc1Cl` [Example 289], the pest or weed control at 100 g/ha in data set [1] (in Brassica rapa), in data set [2] and in data set [3] (in Zea mays) was at least 80% in each case. In data set [4] (log P), this compound had a chromatographic logP of 3.01.
As to `Cc1cc(F)cc(C(=O)NC2CC2)c1NC(=O)c1cc(Cn2nnnc2C(F)(F)F)nn1-c1ncccc1Cl` [Example 169], the pest or weed control at 100 g/ha in data set [1] (in Brassica rapa), in data set [2] and in data set [3] (in Zea mays) was at least 80% each time. The chromatographic logP in data set [4] (log P) worked out at 2.57.
On to `CSC[C@H](C)NC(=O)c1cc(I)cc(C)c1NC(=O)c1cc(Cn2nnc(C(F)(C(F)(F)F)C(F)(F)F)n2)nn1-c1ncccc1Cl` [Example 385], for which the pest or weed control at 100 g/ha in data set [1] (setting [5]), in data set [2] and in data set [3] (setting [6]) was at least 80% in each case. In addition, the chromatographic logP in data set [4] (setting [8]) turned out to be 4.63.
For `CNC(=O)c1cc(Cl)cc(C)c1NC(=O)c1cc(C(C)n2nnnc2C(F)(F)F)nn1-c1ncccc1Cl` (centres unmarked) [Example 510], the pest or weed control at 100 g/ha in data set [1] (in Brassica rapa), in data set [2] and in data set [3] (in Zea mays) was at least 80% each time. The chromatographic logP in data set [4] (log P) was found to be 2.86.
As for `Cc1cc(Cl)cc(C(=O)NC(C)CF)c1NC(=O)c1cc(Cn2nnc(C(F)(F)F)n2)nn1-c1ncccc1Cl` (centres unmarked) [Example 328], the pest or weed control at 100 g/ha in data set [1] (in Brassica rapa), in data set [2] and in data set [3] (in Zea mays) was at least 80% throughout. Besides, the chromatographic logP in data set [4] (log P) worked out at 3.3.
With `Cc1cc(C#N)cc(C(=O)NC2CC2)c1NC(=O)c1cc(Cn2nnc(C(F)(F)C(F)(F)C(F)(F)F)n2)nn1-c1ncccc1Cl` [Example 113], the pest or weed control at 100 g/ha in data set [1] (in Brassica rapa), in data set [2] and in data set [3] (in Zea mays) was at least 80% each time. In data set [4] (by HPLC according to EEC Directive 79/831 Annex V.A8, read-out: log P), the chromatographic logP was determined as 3.58.
On to `CNC(=O)c1cc(C#N)cc(C)c1NC(=O)c1cc(Cn2nnc(C(F)(F)F)n2)nn1-c1ccccc1F` [Example 318], for which the pest or weed control at 100 g/ha in data set [1] (setting [5]), in data set [2] and in data set [3] (setting [6]) was at least 80% throughout. Also, in data set [4] (setting [8]), the chromatographic logP came out at 2.92.
Take `Cc1cc(C#N)cc(C(=O)NCC2CC2)c1NC(=O)c1cc(Cn2nnc(C(F)(F)F)n2)nn1-c1ncccc1Cl` [Example 23]: the pest or weed control at 100 g/ha in data set [1] (in Brassica rapa), in data set [2] and in data set [3] (in Zea mays) was at least 80% each time. In data set [4] (log P), the chromatographic logP came to 3.13.
As to `CCNC(=O)c1cc(Cl)cc(C)c1NC(=O)c1cc(Cn2nnnc2C(F)(F)F)nn1-c1ncccc1Br` [Example 494], the pest or weed control at 100 g/ha in data set [1] (setting [5]), in data set [2] and in data set [3] (setting [6]) was at least 80% each time. Also, the chromatographic logP in data set [4] (setting [7]) is 2.88.
As to `Cc1cc(C#N)cc(C(=O)NC(C)(C)C)c1NC(=O)c1cc(Cn2nnc(C(F)(F)F)n2)nn1-c1ncccc1Br` [Example 332], the pest or weed control at 100 g/ha in data set [1] (setting [5]), in data set [2] and in data set [3] (setting [6]) was at least 80% throughout. The chromatographic logP in data set [4] (setting [8]) worked out at 3.43.
In the case of `Cc1cc(I)cc(C(N)=O)c1NC(=O)c1cc(Cn2nnc(C(F)(F)F)n2)nn1-c1ncccc1Br` [Example 351], the pest or weed control at 100 g/ha in data set [1] (setting [5]), in data set [2] and in data set [3] (setting [6]) was at least 80% in each case. Also, in data set [4] (setting [8]), the chromatographic logP was 2.95.
For `Cc1cc(Cl)cc(C(=O)NC(C)C)c1NC(=O)c1cc(Cn2nnnc2C(F)F)nn1-c1ncccc1Cl` [Example 462], the pest or weed control at 100 g/ha in data set [1] (in Brassica rapa), in data set [2] and in data set [3] (in Zea mays) was at least 80% throughout. The same compound registered a chromatographic logP in data set [4] (log P) of 2.75.
As for `Cc1cc(C#N)cc(C(=O)NC(C)C2CC2)c1NC(=O)c1cc(Cn2nnc(C(F)(F)F)n2)nn1-c1ncccc1Cl` (centres unmarked) [Example 20], the pest or weed control at 100 g/ha in data set [1] (in Brassica rapa), in data set [2] and in data set [3] (in Zea mays) was at least 80% each time. Besides, the chromatographic logP in data set [4] (log P) turned out to be 3.33.
On to `CCNC(=O)c1cc(Br)cc(C)c1NC(=O)c1cc(Cn2nnc(C(F)(F)F)n2)nn1-c1ncccc1Br` [Example 411], for which the pest or weed control at 100 g/ha in data set [1] (setting [5]), in data set [2] and in data set [3] (setting [6]) was at least 80% throughout. Also, in data set [4] (setting [7]), the chromatographic logP was 3.36.
On to `CCNC(=O)c1cc(C#N)cc(C)c1NC(=O)c1cc(Cn2nnnc2C(F)(F)C(F)(F)F)nn1-c1ncccc1Br` [Example 519], for which the pest or weed control at 100 g/ha in data set [1] (setting [5]), in data set [2] and in data set [3] (setting [6]) was at least 80% in each case. Besides, the chromatographic logP in data set [4] (setting [7]) came to 2.94.
With `CNC(=O)c1cc(I)cc(C)c1NC(=O)c1cc(Cn2nnnc2C(F)(F)F)nn1-c1ncccc1C(F)(F)F` [Example 452], the pest or weed control at 100 g/ha in data set [1] (setting [5]), in data set [2] and in data set [3] (setting [6]) was at least 80% in each case. In data set [4] (setting [7]), the chromatographic logP worked out at 3.07.
`CNC(=O)c1cc(Cl)cc(Cl)c1NC(=O)c1cc(Cn2nnnc2C(F)F)nn1-c1ncccc1Cl` [Example 476]: the pest or weed control at 100 g/ha in data set [1] (in Brassica rapa), in data set [2] and in data set [3] (in Zea mays) was at least 80% each time. In data set [4] (log P), the chromatographic logP was 2.22.
In the case of `CNC(=O)c1cc(I)cc(C)c1NC(=O)c1cc(Cn2nnc(C(F)(F)F)n2)nn1-c1ncccc1Br` [Example 410], the pest or weed control at 100 g/ha in data set [1] (setting [5]), in data set [2] and in data set [3] (setting [6]) was at least 80% in each case. The chromatographic logP in data set [4] (setting [7]) came out at 3.26.
With `Cc1cc(C#N)cc(C(=O)NCC(F)F)c1NC(=O)c1cc(Cn2nnc(C(F)(F)F)n2)nn1-c1ncccc1Cl` [Example 91], the pest or weed control at 100 g/ha in data set [1] (in Brassica rapa), in data set [2] and in data set [3] (in Zea mays) was at least 80% each time. The chromatographic logP in data set [4] (log P) was 2.91.
For the compound `Cc1cc(I)cc(C(=O)NC2CC2)c1NC(=O)c1cc(Cn2nnnc2C(F)(F)F)nn1-c1ncccc1Cl` [Example 174], the pest or weed control at 100 g/ha in data set [1] (in Brassica rapa), in data set [2] and in data set [3] (in Zea mays) was at least 80% throughout. The compound also registered a chromatographic logP in data set [4] (log P) of 3.12.
As for `Cc1cc(Cl)cc(C(=O)NC(C)(C)C)c1NC(=O)c1cc(C(C)n2nnnc2C(F)(F)F)nn1-c1ncccc1Cl` (centres unmarked) [Example 511], the pest or weed control at 100 g/ha in data set [1] (in Brassica rapa), in data set [2] and in data set [3] (in Zea mays) was at least 80% in each case. Also, in data set [4] (log P), the chromatographic logP was found to be 3.75.
